From PubChem BioAssay AID1259407 (Chemical Carcinogenesis Research Information System (CCRIS), 2018)
Calls of active or inactive are those of the source. The rule behind the calls is not given here.

Tested on: CCRIS mutagenicity, Ames/micronucleus/aberration tests
Assay: CCRIS mutagenicity studies
[1] = Test System: AMES SALMONELLA TYPHIMURIUM, Strain/Indicator: TA98, Metabolic Activation: HAMSTER, LIVER, S-9, AROCLOR 1254 (30%), Method: PREINCUBATION
[2] = Test System: AMES SALMONELLA TYPHIMURIUM, Strain/Indicator: TA98, Metabolic Activation: NONE, Method: PREINCUBATION
[3] = Test System: AMES SALMONELLA TYPHIMURIUM, Strain/Indicator: TA100, Metabolic Activation: HAMSTER, LIVER, S-9, AROCLOR 1254 (30%), Method: PREINCUBATION
[4] = Test System: AMES SALMONELLA TYPHIMURIUM, Strain/Indicator: TA100, Metabolic Activation: NONE, Method: PREINCUBATION
[5] = Test System: AMES SALMONELLA TYPHIMURIUM, Strain/Indicator: TA100, Metabolic Activation: RAT, LIVER, S-9, AROCLOR 1254 (30%), Method: PREINCUBATION
[6] = Test System: E. COLI, Strain/Indicator: WP2 UVRA, Metabolic Activation: HAMSTER, LIVER, S-9, AROCLOR 1254, Method: STANDARD PLATE
[7] = Test System: E. COLI, Strain/Indicator: WP2 UVRA, Metabolic Activation: HAMSTER, LIVER, S-9, Method: STANDARD PLATE
[8] = Test System: E. COLI, Strain/Indicator: WP2 UVRA, Metabolic Activation: MOUSE, LIVER, S-9, AROCLOR 1254, Method: STANDARD PLATE
[9] = Test System: E. COLI, Strain/Indicator: WP2 UVRA, Metabolic Activation: MOUSE, LIVER, S-9, Method: STANDARD PLATE
[10] = Test System: E. COLI, Strain/Indicator: WP2 UVRA, Metabolic Activation: NONE, Method: STANDARD PLATE
[11] = Test System: E. COLI, Strain/Indicator: WP2 UVRA, Metabolic Activation: RAT, LIVER, S-9, AROCLOR 1254, Method: STANDARD PLATE
[12] = Test System: E. COLI, Strain/Indicator: WP2 UVRA, Metabolic Activation: RAT, LIVER, S-9, Method: STANDARD PLATE

In the case of `O=C(O)CC[N+](=O)[O-]`, the mutagenic call [1] is reported as “inactive; negative”, the mutagenic call [2] is reported as “inactive; negative” and the mutagenic call (Test System: AMES SALMONELLA TYPHIMURIUM, Strain/Indicator: TA98, Metabolic Activation: RAT, LIVER, S-9, AROCLOR 1254 (30%), Method: PREINCUBATION) is reported as “inactive; negative”. The mutagenic call [3] was “active; positive”, the mutagenic call [4] was “active; positive” and the mutagenic call [5] was “active; positive”. For the same compound, the mutagenic call (Test System: CHINESE HAMSTER OVARY, Strain/Indicator: CHO-K1-BH4 (HGPRT)/6-THIOGUANINE, Metabolic Activation: NONE) was “inactive; negative”, the mutagenic call (Test System: CHINESE HAMSTER OVARY, Strain/Indicator: CHO-K1-BH4 (HGPRT)/6-THIOGUANINE, Metabolic Activation: S-9) was “inactive; negative” and the mutagenic call [6] was “inactive; negative”. For the same compound, the mutagenic call [7] was “inactive; negative”, the mutagenic call [8] was “inactive; negative” and the mutagenic call [9] was “inactive; negative”. For the same compound, the mutagenic call [10] was “inactive; negative”, the mutagenic call [11] was “inactive; negative” and the mutagenic call [12] was “inactive; negative”. The mutagenic call (Test System: MOUSE LYMPHOMA, Strain/Indicator: L5178Y (TK+/TK-), Metabolic Activation: NONE, Method: SUSPENSION/PLATE) was “active; positive” and the mutagenic call (Test System: MOUSE LYMPHOMA, Strain/Indicator: L5178Y (TK+/TK-), Metabolic Activation: RAT, LIVER, S-9, AROCLOR 1254, Method: SUSPENSION/PLATE) was “active; positive”.

In the case of `Cc1cc(S(=O)(=O)O)c2c(C)ccc(C(C)C)cc1-2`, the mutagenic call (Test System: AMES SALMONELLA TYPHIMURIUM, Strain/Indicator: TA98, Metabolic Activation: NONE) is reported as “inactive; negative”, the mutagenic call (Test System: AMES SALMONELLA TYPHIMURIUM, Strain/Indicator: TA98, Metabolic Activation: S-9) is reported as “inactive; negative” and the mutagenic call (Test System: AMES SALMONELLA TYPHIMURIUM, Strain/Indicator: TA100, Metabolic Activation: NONE) is reported as “inactive; negative”. The mutagenic call (Test System: AMES SALMONELLA TYPHIMURIUM, Strain/Indicator: TA100, Metabolic Activation: S-9) was “inactive; negative”, the mutagenic call (Test System: AMES SALMONELLA TYPHIMURIUM, Strain/Indicator: TA1535, Metabolic Activation: NONE) was “inactive; negative” and the mutagenic call (Test System: AMES SALMONELLA TYPHIMURIUM, Strain/Indicator: TA1535, Metabolic Activation: S-9) was “inactive; negative”. For the same compound, the mutagenic call (Test System: AMES SALMONELLA TYPHIMURIUM, Strain/Indicator: TA1537, Metabolic Activation: NONE) was “inactive; negative”, the mutagenic call (Test System: AMES SALMONELLA TYPHIMURIUM, Strain/Indicator: TA1537, Metabolic Activation: S-9) was “inactive; negative” and the mutagenic call (Test System: E. COLI, Strain/Indicator: WP2 UVRA, Metabolic Activation: NONE) was “inactive; negative”. The mutagenic call (Test System: E. COLI, Strain/Indicator: WP2 UVRA, Metabolic Activation: S-9) was “inactive; negative”.

With `S=C=Nc1cccc2ccccc12` the mutagenic call (Test System: AMES SALMONELLA TYPHIMURIUM, Strain/Indicator: TA97, Metabolic Activation: HAMSTER, LIVER, S-9, AROCLOR 1254 (30%), Method: PREINCUBATION) was “active; positive”, the mutagenic call (Test System: AMES SALMONELLA TYPHIMURIUM, Strain/Indicator: TA97, Metabolic Activation: NONE, Method: PREINCUBATION) was “inactive; negative” and the mutagenic call (Test System: AMES SALMONELLA TYPHIMURIUM, Strain/Indicator: TA97, Metabolic Activation: RAT, LIVER, S-9, AROCLOR 1254 (10 OR 30%), Method: PREINCUBATION) was “inactive; negative”. The mutagenic call [1] was “inactive; negative”, the mutagenic call [2] was “inactive; negative” and the mutagenic call (Test System: AMES SALMONELLA TYPHIMURIUM, Strain/Indicator: TA98, Metabolic Activation: RAT, LIVER, S-9, AROCLOR 1254 (1O OR 30%), Method: PREINCUBATION) was “inactive; negative”. For the same compound, the mutagenic call (Test System: AMES SALMONELLA TYPHIMURIUM, Strain/Indicator: TA100, Metabolic Activation: HAMSTER, LIVER, S-9, AROCLOR 1254 (10%), Method: PREINCUBATION) was “inactive; negative”, the mutagenic call [3] was “active; positive” and the mutagenic call [4] was “inactive; negative”. The mutagenic call (Test System: AMES SALMONELLA TYPHIMURIUM, Strain/Indicator: TA100, Metabolic Activation: RAT, LIVER, S-9, AROCLOR 1254 (10%), Method: PREINCUBATION) was “inactive; negative”, the mutagenic call [5] was “inactive; negative” and the mutagenic call (Test System: AMES SALMONELLA TYPHIMURIUM, Strain/Indicator: TA1535, Metabolic Activation: HAMSTER, LIVER, S-9, AROCLOR 1254 (10 OR 30%), Method: PREINCUBATION) was “inactive; negative”. For the same compound, the mutagenic call (Test System: AMES SALMONELLA TYPHIMURIUM, Strain/Indicator: TA1535, Metabolic Activation: NONE, Method: PREINCUBATION) was “inactive; negative”, the mutagenic call (Test System: AMES SALMONELLA TYPHIMURIUM, Strain/Indicator: TA1535, Metabolic Activation: RAT, LIVER, S-9, AROCLOR 1254 (10 OR 30%), Method: PREINCUBATION) was “inactive; negative” and the mutagenic call (Test System: AMES SALMONELLA TYPHIMURIUM, Strain/Indicator: TA1537, Metabolic Activation: HAMSTER, LIVER, S-9, AROCLOR 1254 (30%), Method: PREINCUBATION) was “inactive; negative”. The mutagenic call [6] was “inactive; negative”, the mutagenic call [7] was “inactive; negative” and the mutagenic call [8] was “inactive; negative”. The mutagenic call [9] was “inactive; negative”, the mutagenic call [10] was “inactive; negative” and the mutagenic call [11] was “inactive; negative”. The mutagenic call [12] was “inactive; negative”.

`Nc1ncnc2nc[nH]c12` was tested, and the mutagenic call (Test System: AMES SALMONELLA TYPHIMURIUM, Strain/Indicator: TA97, Metabolic Activation: NONE, Method: STANDARD PLATE) was “inactive; negative”, the mutagenic call (Test System: AMES SALMONELLA TYPHIMURIUM, Strain/Indicator: TA97, Metabolic Activation: RAT, LIVER, S-9, AROCLOR 1254, Method: STANDARD PLATE) was “inactive; negative” and the mutagenic call (Test System: AMES SALMONELLA TYPHIMURIUM, Strain/Indicator: TA98, Metabolic Activation: NONE, Method: STANDARD PLATE) was “inactive; negative”. For the same compound, the mutagenic call (Test System: AMES SALMONELLA TYPHIMURIUM, Strain/Indicator: TA98, Metabolic Activation: RAT, LIVER, S-9, AROCLOR 1254, Method: STANDARD PLATE) was “active; positive”, the mutagenic call (Test System: AMES SALMONELLA TYPHIMURIUM, Strain/Indicator: TA100, Metabolic Activation: NONE, Method: STANDARD PLATE) was “inactive; negative” and the mutagenic call (Test System: AMES SALMONELLA TYPHIMURIUM, Strain/Indicator: TA100, Metabolic Activation: RAT, LIVER, S-9, AROCLOR 1254, Method: STANDARD PLATE) was “inactive; negative”.
